According to publication PMC10128061, “Targeting Sterylglucosidase A to Treat Aspergillus fumigatus Infections” (mBio, 2023):
Several values for one entry are separate records, joined by “and”; a condition that tells them apart may be missing. Identical values can stand only once. Like-named read-outs stand apart in the source and are kept apart here.

Experiments:
Af SglA = Af SglA (Aspergillus fumigatus, UniProt Q4WXA7); test: HTS / resorufin 3β-D-glucopyranoside (ResGlp) enzymatic assay of SglA; assay type: biochemical; settings: primary screen, ResGlp as the substrate, single compounds 0.25 to 4 μM
Af SglA, sequence (Q4WXA7 entry or part of it): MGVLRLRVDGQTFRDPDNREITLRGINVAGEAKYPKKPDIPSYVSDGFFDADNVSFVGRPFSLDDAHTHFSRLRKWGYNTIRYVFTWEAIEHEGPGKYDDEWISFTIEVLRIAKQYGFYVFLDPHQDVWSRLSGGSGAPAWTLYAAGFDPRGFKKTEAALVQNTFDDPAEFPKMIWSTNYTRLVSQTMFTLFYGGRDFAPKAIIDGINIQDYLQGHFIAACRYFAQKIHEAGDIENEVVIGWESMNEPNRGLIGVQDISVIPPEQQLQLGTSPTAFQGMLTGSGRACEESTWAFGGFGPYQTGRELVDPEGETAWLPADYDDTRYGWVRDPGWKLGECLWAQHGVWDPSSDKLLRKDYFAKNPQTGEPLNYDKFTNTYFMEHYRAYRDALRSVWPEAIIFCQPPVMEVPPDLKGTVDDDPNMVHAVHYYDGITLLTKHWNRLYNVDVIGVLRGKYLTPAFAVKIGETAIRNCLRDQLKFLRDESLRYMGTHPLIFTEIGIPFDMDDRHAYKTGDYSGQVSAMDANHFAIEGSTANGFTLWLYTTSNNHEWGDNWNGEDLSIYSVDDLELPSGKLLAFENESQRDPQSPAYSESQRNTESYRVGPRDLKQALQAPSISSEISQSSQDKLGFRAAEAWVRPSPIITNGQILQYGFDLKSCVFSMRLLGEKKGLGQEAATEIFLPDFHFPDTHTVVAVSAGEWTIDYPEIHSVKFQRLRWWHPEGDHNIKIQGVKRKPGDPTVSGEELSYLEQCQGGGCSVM
Protocol: (§1) Resorufin 3β-D-glucopyranoside (ResGlp; Sigma-Aldrich) enzyme kinetic assays were performed according to methods described by Pereira de Sa et al. ([17]). Reaction buffer contained 50 mM citric acid, 176 mM K2HPO4 (pH 6), 0.01% Tween 20, and 10 mM sodium taurocholate. The reaction was carried out in a black 96-well plate using 0.23 pmol of SglA with 100 μM ResGlp substrate. 10 μL/well of ResGlp was added to each well and the reaction was initiated by adding 20 μL enzyme (0.23 pmol). After incubation at 37°C for 30 min, the fluorescence was read at an excitation of 570 (±10) nm and an emission of 610 (±10) nm on a VersaMax microplate reader from Molecular Devices. A standard curve was prepared with serial dilutions of the free fluorophore, resorufin, in the same volume of assay buffer. All reactions were linear with respect to time and protein concentration, and the pH, temperature, and dimethyl sulfoxide (DMSO) optimal tolerance were verified.
(§2) A ChemBridge DIVERSet-CL library (ChemBridge, San Diego, CA) containing 50,000 compounds was screened to identify small molecules that inhibit Af SglA. The library was prepared in a 96-well plate format containing a cocktail of 10 compounds per well at 1 mM each in 100% DMSO. The cocktail plates were first diluted to 100 μM each (1:10 dilution in Dulbecco’s phosphate-buffered saline [DPBS]), resulting in 10% DMSO. In order to screen the compound cocktails at […] in 1% DMSO in a final reaction volume of 30 μL, an aliquot of 3 μL was added to 17 μL of buffer containing 0.23 pmol of enzyme and the reaction was started by adding 10 μL of 100 μM ResGlp. A negative control without enzyme and positive controls with and without DMSO were prepared. The plates were incubated at 37°C for 30 min. The Z′ factor was used for the assessment of the efficiency of the HTS assay for each plate. Values greater than 0.5 are considered indicators of excellent screening assay quality ([36]).

wild-type Af [1] = test: Filamentation assay (hyphal length); assay type: cell-based, Aspergillus fumigatus; settings: 12 h
Protocol: To evaluate hyphal growth, conidial suspensions of the Af wild-type strain ΔKu80pyrG1a and the Δsgla and Δsgla+SGLA strains were obtained as described above. Then, the assay conditions were performed as previously described by Fernandes et al. ([16]). For that, 1 × 10^5 conidia of strain ΔKu80pyrG1a were inoculated onto a glass-bottom dish containing 2 mL of MM or MM+UU with and without the experimental compounds in various concentrations and grown at 37°C for 10 to 12 h. MM broth without the compounds were used for the mutant and the reconstituted strains. The living hyphae growing attached to the glass were analyzed by differential inference contrast (DIC) microscopy using a Zeiss Observer D.1 microscope, and the hyphal length was measured using ImageJ software.

A. fumigatus SglA = A. fumigatus SglA (Aspergillus fumigatus, UniProt Q4WXA7); test: Ergosterol 3β-D-glucoside (ErgGlc) hydrolysis by SglA, ergosterol quantified by HPLC; assay type: biochemical
A. fumigatus SglA, sequence (Q4WXA7 entry or part of it): as above
Protocol: We assessed the potential inhibition of SglA enzymatic activity toward ErgGlc by the seven derivatives at concentrations of 0.1, 1, 10, and 100 μM.
A 50-μL volume of wild-type Af SglA containing 10 ng of protein (0.11 pmol) and 50 μL of mixed micelles of lipid and Triton X-100 in 50 mM sodium acetate buffer (pH 5.5) with 150 mM NaCl, 5 mM βME, and 5 mM DTT were mixed and incubated at 37°C for 20 min (ErgGlc; Avanti Polar Lipids). After the incubation period, each reaction was quenched with a 2:1 chloroform-methanol solution, and the organic phase was collected and dried. Then, the lipid content was resuspended in […] methanol and analized by HPLC using Agilent 1260 Infinity II (Agilent Technologies). Total ErgGlc and ergosterol were detected at 282 nm on a C8 column with a flow rate of 0.5 mL/min in methanol-water (90:10) buffered with 1 mM ammonium formate and 0.2% formic acid.

[2] = test system: human lung epithelial cancer cell line A549; settings: 24 h
Protocol: The cells were maintained in Dulbecco’s modified Eagle medium (DMEM) containing 10% fetal bovine serum (FBS) and 1% penicillin-streptomycin. At passage 11, 10^5 cells were transferred into each well of 96-well plates and cultured for 18 to 24 h to allow the cells to adhere to the well surface. Next, the medium was removed, and fresh medium containing the selected compounds at concentration range of 1 to 512 μM was added to the wells. Controls with equivalent serial concentrations of DMSO were also evaluated and compared with a control without DMSO. The plate was incubated at 37°C with 5% CO2. After 24 h, the supernatant was removed and 50 μL of 5 mg/mL 3-(4,5-dimethylthiazol-2-yl)-2,5-diphenyltetrazoliumbromide (MTT) solution in PBS was added to each well. The plates were incubated for an additional 4 h, and the formazan crystals formed inside the cell were dissolved by adding 50 μL DMSO. Next, the absorbance was measured at 570 nm, and the calculated LD50 was divided by the IC50 of each hit in order to determine the SI of each compound.

Af wild-type strain [3] = test: Mouse model of pulmonary aspergillosis, survival; assay type: in vivo, CBA/J mice
Protocol: Male and female CBA/J mice 5 to 6 weeks old were purchased from Envigo and allowed 1 week to acclimate upon arrival. One day prior to infection, the animals were immunosuppressed with 100 mg/kg of the corticosteroid triamcinolone acetonide (Alfa Aesar) subcutaneously as previously described ([16]). On the day of the infection, the animals were initially anesthetized with a ketamine-xylazine solution (95 mg of ketamine and 5 mg of xylazine per kg of body weight) intraperitoneally and then infected with 2.5 × 10^4 Af wild-type ΔKu80pyrG+ conidia in 20 μL of PBS intranasally. One hour after the procedure, intraperitoneal treatment with hit B (5 and 20 mg/kg/day) and hit C (20 and 60 mg/kg/day) was started and continued until 30 days postinfection. Mice that survived until day 30 were euthanized by CO2 inhalation and used for organ fungal burden determinations. A similar procedure was performed for derivative B7 at a dose of 5 mg/kg/day.

wild-type Af [4] = test: Ergosterol 3-β-D-glucoside accumulation in live cells (LC-MS); assay type: cell-based, Aspergillus fumigatus; settings: 48 h; for ErgGlc accumulation versus control (untreated wild-type Af): 100 and 500 μM
Protocol: Wild-type Af ΔKu80pyrG1a and the mutant Δsgla strain were cultivated in yeast extract-glucose medium (YAG) (2% [wt/vol] glucose, 0.5% [wt/vol] yeast extract, 1× trace elements, 1× amino acid solution, 2% [wt/vol] bacteriological agar) for 48 h at 37°C. High-nitrate salts, trace elements, and amino acid solutions were prepared as previously described ([37]). The medium was supplemented with 1.2 g/L of uracil and uridine (UU), generating YAG+UU medium when the strain ΔKu80pyrG1a was used. After that, the a conidial suspension in water was obtained, and a pellet with 1 × 10^7 conidia was treated in minimal medium broth pH 6.5 (MM or MM+UU) (1% [wt/vol] glucose, 1× high-nitrate salts, 1× trace elements) for 48 h at 37°C under agitation, with the hits selected, according to the toxicity criteria, at various concentrations. […] After that, the resultant hyphal pellet was used for lipid extraction. Then, the total lipid was extracted as described by Singh et al. ([39]). The dried samples were resuspended in 2:1 chloroform-methanol for liquid chromatography-mass spectrometry (LC-MS) analysis. A standard ErgGlc from Avanti Polar Lipids was used as a control for the calibration curve. Data were normalized to the total inorganic phosphate content in the sample.

Af wild-type strain [5] = test: Lung fungal burden quantification by qPCR; assay type: in vivo, CBA/J mice; settings: hit B 20, hit C 60, B7 5 mg/kg/day intraperitoneally
Protocol: Lung fungal burden was assessed by the determination of the amplification of fungal 18S DNA by qPCR. The lungs of euthanized mice were aseptically removed and immediately frozen in liquid nitrogen. Genomic DNA extraction was carried out as previously described by Malavazi and Goldman ([40]) with modifications. Previous to the genomic DNA extraction, the lungs were lyophilized for 2 to 3 days, ground using 2-mm glass beads, resuspended in 1 mL of lysis buffer, and vortexed thoroughly. One milliliter of phenol-chloroform–isoamyl alcohol (25:24:1), stabilized and saturated with 100 mM Tris-EDTA to pH 8.0 (Sigma-Aldrich), was added, and the mixture was vortexed for 10 min to extract nucleic acid. The mixture was centrifuged, and the aqueous phase was collected, and the genomic DNA was precipitated with 500 μL isopropanol. The DNA pellet was washed with 500 μL cold 70% ethanol and air dried, and the DNA pellet was resuspended in 100 μL of DNase-free water. The primers Fungal 18S 5′ UTR fw ([…]) and 3′ UTR rv ([…]) and the mouse glyceraldehyde-3-phosphate dehydrogenase (GAPDH) primers 5′ UTR fw ([…]) and 3′ UTR rv ([…]) were amplified using SYBR green PCR master mix (Thermo Fisher Scientific).

[6] = test system: O=c1ccc2nc3ccc(O[C@@H]4O[C@H](CO)[C@@H](O)[C@H](O)[C@H]4O)cc3oc-2c1; test: HTS / resorufin 3β-D-glucopyranoside (ResGlp) enzymatic assay of SglA; assay type: biochemical, Aspergillus fumigatus; settings: other: substrate kinetics, 0.23 pmol of SglA; pH 6.0; 37.0 °C
Protocol: as §1, §2

[7] = ErgGlc as the substrate, read-out: IC50
[8] = substrate in Triton X-100 mixed micelles, 0.11 pmol SglA, 20 min

CC(Cc1ccc2c(c1)OCO2)c1c(-c2ccccc2)ncn1CCO (centres unmarked) [Hit C] was tested, and the IC50 (Af SglA) was 2 µM and 1 to 2 µM, the hyphal growth (wild-type Af [1]; all concentrations tested (1 to 100 μM)) was “significantly reduced hyphal growth at all concentrations tested” and the IC50 (A. fumigatus SglA; ErgGlc as the substrate) was “low micromolar range”. The LD50 [2] was over 200 µM, the “survival versus infected untreated mice” value (Af wild-type strain [3]; 60 mg/kg/day intraperitoneally) was “significantly prolonged mouse survival” and the survival of animals (Af wild-type strain [3]; 60 mg/kg/day intraperitoneally, until day 30 postinfection) was 20%. For the same molecule, the “ErgGlc accumulation versus control (untreated wild-type Af)” value (wild-type Af [4]) was “differed significantly from the control” and the “lung fungal burden of mice that survived 30 days” value (“lung fungal burden” for short) (Af wild-type strain [5]) was “full lung clearance”.

For Cc1[nH]c2ccc(CNc3cc(N)ncn3)cc2c1C [Hit B], the IC50 (Af SglA) was 1 µM and 1 to 2 µM, the “germination and hyphal growth of Af wild-type conidia” value (wild-type Af [1]; 50 and 100 μM, 37°C) was “significantly delays the germination and hyphal growth” and the IC50 (A. fumigatus SglA) was 10 µM. The IC50 (A. fumigatus SglA; ErgGlc as the substrate) was “low micromolar range”, the survival of animals (Af wild-type strain [3]; 20 mg/kg/day intraperitoneally, 30 days, immunosuppressed mice) was 50% and the “ErgGlc accumulation versus control (untreated wild-type Af)” value (wild-type Af [4]) was “differed significantly from the control”. The “lung fungal burden” value (Af wild-type strain [5]) was “no fungal burden in the lung tissue”.

Molecule Af SglA (Aspergillus fumigatus Af293) has a Km [6] of 86.2 µM.

CCc1[nH]c2ccc(CNc3ccnc(N)n3)cc2c1C [Hit B3, N~4~-[(2-ethyl-3-methyl-1H-indol-5-yl)methyl]pyrimidine-2,4-diamine] showed an IC50 (A. fumigatus SglA; [7]) of over 100 µM.

For Cc1cc(CNc2cc(N)ncn2)c2[nH]c(C)c(C)c2c1 [Hit B1, N-[(2,3,5-trimethyl-1H-indol-7-yl)methyl]pyrimidine-4,6-diamine], the IC50 (A. fumigatus SglA; [7]) was over 100 µM.

For Cc1[nH]c2ccc(CNc3cc(NCCO)ncn3)cc2c1C [Hit B2, 2-[(6-{[(2,3-dimethyl-1H-indol-5-yl)methyl]amino}pyrimidin-4-yl)amino]ethanol], the IC50 (A. fumigatus SglA; [7]) was 15 µM.

CCc1[nH]c2ccc(CNc3nc(C)cc(NC)n3)cc2c1C [Hit B7, N~2~-[(2-ethyl-3-methyl-1H-indol-5-yl)methyl]-N~4~,6-dimethylpyrimidine-2,4-diamine] was tested, and the “hyphal length compared with hit B” value (wild-type Af [1]; 50 and 100 μM) was “shorter hyphae than hit B”, the IC50 (A. fumigatus SglA) was 3 µM and the LD50 [2] was 200 µM. For the same molecule, the “ErgGlc accumulation compared with hit B” value (wild-type Af [4]; 100 μM) was “significantly higher accumulation of ErgGlc than treatment with hit B” and the “lung fungal burden” value (Af wild-type strain [5]) was “full recovery”.

Cc1cc(CNc2ccnc(N)n2)c2[nH]c(C)c(C)c2c1 [Hit B4, N~4~-[(2,3,5-trimethyl-1H-indol-7-yl)methyl]pyrimidine-2,4-diamine] was tested, and the IC50 (A. fumigatus SglA; [7]) was over 100 µM.

Molecule CC(C)[C@@H](C)/C=C/[C@@H](C)[C@H]1CC[C@H]2C3=CC=C4C[C@@H](O[C@@H]5O[C@H](CO)[C@@H](O)[C@H](O)[C@H]5O)CC[C@]4(C)[C@H]3CC[C@]12C [ErgGlc, ergosterol 3β-D-glucoside, reference compound] has a Km (A. fumigatus SglA; [8]) of 0.57 ± 0.09 mol% and a kcat (A. fumigatus SglA; [8]) of 0.73 ± 0.04 s⁻¹.

For CCc1[nH]c2ccc(CNc3cc(C)nc(NC)n3)cc2c1C [Hit B6, N~4~-[(2-ethyl-3-methyl-1H-indol-5-yl)methyl]-N~2~,6-dimethylpyrimidine-2,4-diamine], the IC50 (A. fumigatus SglA; [7]) was 9 µM.

Cc1[nH]c2ccc(CNc3cc(N4CCOCC4)ncn3)cc2c1C [Hit B5, N-[(2,3-dimethyl-1H-indol-5-yl)methyl]-6-morpholin-4-ylpyrimidin-4-amine] showed an IC50 (A. fumigatus SglA; [7]) of 15 µM.
